Reference: ChEMBL document CHEMBL1201862, “PubChem BioAssay data set” (2004)
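Growth conditions: 96-well plates. Treatment: test compound, 48 hours, 5 concentrations. Analysis: linear interpolation between bracketing concentrations; unreached endpoints set to highest concentration. The concentration for 50% growth inhibition is given as GI50.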 Active and inactive are the calls of the source. Cut-off read from the data, not from the text of the source: active = GI50 up to about 1.1 µM and inactive = higher.

Experiments:
Assay in all cases: NCI-60 cell line screen, 48 h
CAKI-1 = system: CAKI-1
UO-31 = system: UO-31
NCI-H522 = system: NCI-H522
PC-3 = system: PC-3
NCI-H23 = system: NCI-H23
HT-29 = system: HT-29
SF-268 = system: SF-268
Malme-3M = system: Malme-3M
SK-OV-3 = system: SK-OV-3
NCI-H226 = system: NCI-H226
MOLT-4 = system: MOLT-4
MCF7 = system: MCF7
MDA-MB-231 = system: MDA-MB-231
RXF 393 = system: RXF 393
OVCAR-8 = system: OVCAR-8
BT-549 = system: BT-549
SNB-19 = system: SNB-19
HCT-116 = system: HCT-116
SN12C = system: SN12C
SF-295 = system: SF-295
DU-145 = system: DU-145
HCT-15 = system: HCT-15
786-0 = system: 786-0
EKVX = system: EKVX
MDA-N = system: MDA-N
T47D = system: T47D
SK-MEL-5 = system: SK-MEL-5
A498 = system: A498
KM12 = system: KM12
HCC 2998 = system: HCC 2998
K562 = system: K562
LOX IMVI = system: LOX IMVI
M14 = system: M14
COLO 205 = system: COLO 205
ACHN = system: ACHN
OVCAR-3 = system: OVCAR-3
HOP-92 = system: HOP-92
SR = system: SR
NCI/ADR-RES = system: NCI/ADR-RES
A549 = system: A549
HOP-62 = system: HOP-62
OVCAR-4 = system: OVCAR-4
Hs-578T = system: Hs-578T
UACC-62 = system: UACC-62
UACC-257 = system: UACC-257
IGROV-1 = system: IGROV-1
RPMI-8226 = system: RPMI-8226
SNB-75 = system: SNB-75
OVCAR-5 = system: OVCAR-5
NCI-H460 = system: NCI-H460
SK-MEL-2 = system: SK-MEL-2
CCRF-CEM = system: CCRF-CEM
HL-60 = system: HL-60
SW-620 = system: SW-620
TK-10 = system: TK-10
SF-539 = system: SF-539
U-251 = system: U-251
MDA-MB-435 = system: MDA-MB-435
SK-MEL-28 = system: SK-MEL-28

SMILES: COc1cc2nc(-c3ccc4ccccc4c3)nc(O)c2cc1OC
- GI50 (CAKI-1): > 100 µM (inactive)
- GI50 (UO-31): > 100 µM (inactive)
- GI50 (NCI-H522): 56.1 µM (inactive)
- GI50 (PC-3): > 100 µM (inactive)
- GI50 (NCI-H23): 49.2 µM (inactive)
- GI50 (HT-29): > 100 µM (inactive)
- GI50 (SF-268): 19.1 µM (inactive)
- GI50 (Malme-3M): 49.2 µM (inactive)
- GI50 (SK-OV-3): > 100 µM (inactive)
- GI50 (NCI-H226): > 100 µM (inactive)
- GI50 (MOLT-4): > 100 µM (inactive)
- GI50 (MCF7): > 100 µM (inactive)
- GI50 (MDA-MB-231): > 100 µM (inactive)
- GI50 (RXF 393): 41.7 µM (inactive)
- GI50 (OVCAR-8): 43.2 µM (inactive)
- GI50 (BT-549): > 100 µM (inactive)
- GI50 (SNB-19): 23.8 µM (inactive)
- GI50 (HCT-116): > 100 µM (inactive)
- GI50 (SN12C): > 100 µM (inactive)
- GI50 (SF-295): 48.9 µM (inactive)
- GI50 (DU-145): > 100 µM (inactive)
- GI50 (HCT-15): > 100 µM
- GI50 (786-0): 22.9 µM (inactive)
- GI50 (EKVX): > 100 µM (inactive)
- GI50 (MDA-N): > 100 µM (inactive)
- GI50 (T47D): > 100 µM (inactive)
- GI50 (SK-MEL-5): > 100 µM (inactive)
- GI50 (A498): 72.9 µM (inactive)
- GI50 (KM12): > 100 µM (inactive)
- GI50 (HCC 2998): > 100 µM (inactive)
- GI50 (K562): > 100 µM (inactive)
- GI50 (LOX IMVI): > 100 µM (inactive)
- GI50 (M14): > 100 µM (inactive)
- GI50 (COLO 205): > 100 µM (inactive)
- GI50 (ACHN): 48.8 µM (inactive)
- GI50 (OVCAR-3): > 100 µM (inactive)
- GI50 (HOP-92): 37.5 µM (inactive)
- GI50 (SR): > 100 µM (inactive)
- GI50 (NCI/ADR-RES): 69.5 µM (inactive)
- GI50 (A549): > 100 µM (inactive)
- GI50 (HOP-62): 19 µM (inactive)
- GI50 (OVCAR-4): 42.9 µM (inactive)
- GI50 (Hs-578T): 53.2 µM (inactive)
- GI50 (UACC-62): 99.3 µM (inactive)
- GI50 (UACC-257): > 100 µM (inactive)
- GI50 (IGROV-1): > 100 µM (inactive)
- GI50 (RPMI-8226): > 100 µM (inactive)
- GI50 (SNB-75): 13.8 µM (inactive)
- GI50 (OVCAR-5): > 100 µM (inactive)
- GI50 (NCI-H460): > 100 µM (inactive)
- GI50 (SK-MEL-2): 42.8 µM (inactive)
- GI50 (CCRF-CEM): > 100 µM (inactive)
- GI50 (HL-60): > 100 µM (inactive)

SMILES: CC1OC(OC2C(OC(=O)[C@]34CCC(C)(C)C[C@H]3C3=CC[C@@H]5[C@@]6(C)CC[C@H](OC7OC(CO)C(O)C(O)C7OC7OC(CO)C(O)C(O)C7O)C(C)(C)[C@@H]6CC[C@@]5(C)[C@]3(C)CC4)OCC(O)C2O)C(O)C(O)C1OC1OCC(O)C(O)C1O (stereo partly specified)
- GI50 (CAKI-1): 5.01 µM (inactive)
- GI50 (UO-31): 2.3 µM (inactive)
- GI50 (NCI-H522): 3.67 µM (inactive)
- GI50 (SW-620): 16.1 µM (inactive)
- GI50 (PC-3): 12.4 µM (inactive)
- GI50 (NCI-H23): 9.35 µM (inactive)
- GI50 (HT-29): 7.03 µM (inactive)
- GI50 (SF-268): 6.85 µM (inactive)
- GI50 (Malme-3M): 3.82 µM (inactive)
- GI50 (SK-OV-3): 16.3 µM (inactive)
- GI50 (NCI-H226): 10.8 µM (inactive)
- GI50 (MOLT-4): 16.4 µM (inactive)
- GI50 (MCF7): 12.6 µM (inactive)
- GI50 (MDA-MB-231): 7.83 µM (inactive)
- GI50 (RXF 393): 9.48 µM (inactive)
- GI50 (OVCAR-8): 16.5 µM (inactive)
- GI50 (BT-549): 9.12 µM (inactive)
- GI50 (SNB-19): 14.5 µM (inactive)
- GI50 (HCT-116): 11 µM (inactive)
- GI50 (TK-10): 8.51 µM (inactive)
- GI50 (SN12C): 3.13 µM (inactive)
- GI50 (SF-295): 11.2 µM (inactive)
- GI50 (DU-145): 11.9 µM (inactive)
- GI50 (SF-539): 45.8 µM (inactive)
- GI50 (U-251): 15.1 µM (inactive)
- GI50 (HCT-15): 15.7 µM
- GI50 (MDA-MB-435): 2.79 µM (inactive)
- GI50 (786-0): 8.3 µM (inactive)
- GI50 (EKVX): 5 µM (inactive)
- GI50 (T47D): 15.4 µM (inactive)
- GI50 (SK-MEL-5): 14.3 µM (inactive)
- GI50 (A498): 2.25 µM (inactive)
- GI50 (KM12): 7.73 µM (inactive)
- GI50 (HCC 2998): 1.98 µM (inactive)
- GI50 (K562): 10.8 µM (inactive)
- GI50 (LOX IMVI): 18.2 µM (inactive)
- GI50 (M14): 4.67 µM (inactive)
- GI50 (COLO 205): 1.71 µM (inactive)
- GI50 (ACHN): 11.9 µM (inactive)
- GI50 (OVCAR-3): 23.9 µM (inactive)
- GI50 (HOP-92): 6.85 µM (inactive)
- GI50 (SR): 7.93 µM (inactive)
- GI50 (NCI/ADR-RES): 8.97 µM (inactive)
- GI50 (A549): 6.37 µM (inactive)
- GI50 (HOP-62): 15.3 µM (inactive)
- GI50 (OVCAR-4): 9.59 µM (inactive)
- GI50 (Hs-578T): 20.7 µM (inactive)
- GI50 (UACC-62): 16.9 µM (inactive)
- GI50 (UACC-257): 2.51 µM (inactive)
- GI50 (IGROV-1): 16 µM (inactive)
- GI50 (RPMI-8226): 12.9 µM (inactive)
- GI50 (SNB-75): 16.7 µM (inactive)
- GI50 (OVCAR-5): 7.98 µM (inactive)
- GI50 (NCI-H460): 24.4 µM (inactive)
- GI50 (SK-MEL-2): 6.32 µM (inactive)
- GI50 (CCRF-CEM): 18.5 µM (inactive)
- GI50 (HL-60): 6.11 µM (inactive)
- GI50 (SK-MEL-28): 2.65 µM (inactive)
